From paper PMC12892976, “Alkylation-based optimization of antifungal FPPS inhibitors yields a potent, broad-spectrum lipophilic zoledronate derivative” (mBio, 2025)
Like-named read-outs stand apart in the source and are kept apart here.

Experiments:
Candida albicans [1] = experiment: checkerboard drug interaction (FICI, MICc);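 for all read-outs here: antifungal plus FPPS inhibitor combinations on Candida albicans tested by a simplified diagonal checkerboard screen, with FICI calculated under the Loewe additivity model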; format: cell-based; settings: C. albicans; for INH FD (MIC-MICc fold decrease): fold decrease of inhibitor MIC
Method: (§1) Drug interactions between antifungals and FPPS inhibitors were investigated using a simplified checkerboard diagonal screening method ([45]). […] FICIs were determined according to the Loewe additivity model ([17]).

Saccharomyces cerevisiae [2] = experiment: MIC/MFC broth microdilution (CLSI); format: cell-based; settings: Saccharomyces cerevisiae S288c
Method: (§2) Antifungal susceptibility was determined by broth microdilution according to the CLSI guidelines described in M27-Ed4 ([16]). […] MFC was determined by back-plating drug-treated cultures from MIC broths onto SDA plates. The MFC was defined as the lowest concentration from which no colonies could be cultured.

Aspergillus fumigatus [3] = experiment: MIC/MFC broth microdilution (CLSI); settings: ATCC204305
Method: as §2

eight fungal species [4] = experiment: checkerboard interaction with azoles, summary across the eight species; format: cell-based; settings: geometric mean MIC in combination with azoles
Description: Synergy between lipophilic FPPS inhibitors and azole antifungals was investigated by determining the fractional inhibitory concentration index (FICI) (Fig. 2; Table S1 Fig. S1) ([17]). […]. Derivatives PLA9 and 11, and PDA9, 11, and 12 antagonized azoles in C. albicans, C. neoformans, and C. deuterogattii, yet were largely synergistic in C. glabrata and S. cerevisiae. […].

HEK-293T cells = experiment: MTT reduction cytotoxicity assay; format: cell-based; settings: Homo sapiens, HEK-293T, 72 h, HEK-293T, MTT, 72 h; read-out: HEK IC50
Candida albicans [5] = experiment: MIC/MFC broth microdilution (CLSI); format: cell-based; settings: Candida albicans SC5314
Method: as §2

Saccharomyces cerevisiae [6] = experiment: checkerboard drug interaction (FICI, MICc);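 for all read-outs here: simplified diagonal checkerboard screen pairing antifungals with FPPS inhibitors, FICI calculated under the Loewe additivity model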; format: cell-based; design: INH MICc / INH MICc (ITR:INH) / INH MICc (KET:INH) / INH MICc (FLC:INH): unit not given beside the values; settings: S. cerevisiae; for INH FD (MIC-MICc fold decrease): fold decrease of inhibitor MIC
Cryptococcus neoformans [7] = experiment: checkerboard drug interaction (FICI, MICc);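 for all read-outs here: antifungal plus FPPS inhibitor pairs tested against Cryptococcus neoformans by simplified diagonal checkerboard screening, FICI computed under the Loewe additivity model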; format: cell-based; settings: C. neoformans; for INH FD (MIC-MICc fold decrease): fold decrease of inhibitor MIC
Method: as §1

Candida glabrata [8] = experiment: MIC/MFC broth microdilution (CLSI); settings: Nakaseomyces glabratus, CBS138;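 note: broth microdilution following CLSI M27-Ed4, MFC taken as the lowest drug level yielding no growth once MIC wells were subcultured on SDA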
Method: as §2

Trichophyton rubrum [9] = experiment: MIC/MFC broth microdilution (CLSI); settings: Trichophyton rubrum
Method: as §2

eight fungal species [10] = experiment: MIC/MFC summary across the eight fungal species of Table 1; format: cell-based
Method: The antifungal activity of these compounds was evaluated according to CLSI guidelines ([16]).

Aspergillus fumigatus [11] = experiment: checkerboard drug interaction (FICI, MICc);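 for all read-outs here: simplified diagonal checkerboard screen pairing antifungals with FPPS inhibitors against Aspergillus fumigatus, with FICI calculated under the Loewe additivity model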; format: cell-based; settings: A. fumigatus; for INH FD (MIC-MICc fold decrease): fold decrease of inhibitor MIC
Method: as §1

Cryptococcus neoformans [12] = experiment: MIC/MFC broth microdilution (CLSI); settings: Cryptococcus neoformans;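 note: susceptibility testing followed the CLSI M27-Ed4 broth microdilution document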
Method: as §2

[13] = tested on: Cryptococcus deuterogattii; experiment: MIC/MFC broth microdilution (CLSI); settings: Cryptococcus deuterogattii;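 note: broth microdilution per CLSI M27-Ed4. MFC is the lowest concentration yielding no colonies when MIC broths are subcultured onto SDA plates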
Method: as §2

Aspergillus flavus [14] = experiment: checkerboard drug interaction (FICI, MICc);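 note: simplified diagonal checkerboard screen pairing azole antifungals with FPPS inhibitors, FICI calculated under the Loewe additivity model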; format: cell-based; design: INH MICc (KET:INH) / INH MICc (FLC:INH): unit not given beside the values; settings: A. flavus
Aspergillus flavus [15] = experiment: MIC/MFC broth microdilution (CLSI); settings: ATCC204304
Method: as §2

[16] = tested on: Cryptococcus deuterogattii; experiment: checkerboard drug interaction (FICI, MICc);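 for all read-outs here: simplified diagonal checkerboard screen pairing antifungal drugs with FPPS inhibitors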; format: cell-based; settings: C. deuterogattii; for INH FD (MIC-MICc fold decrease): fold decrease of inhibitor MIC
Method: as §1

Candida glabrata [17] = experiment: checkerboard drug interaction (FICI, MICc);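 for all read-outs here: simplified diagonal checkerboard screen pairing antifungals with FPPS inhibitors, FICI calculated under the Loewe additivity model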; format: cell-based; settings: C. glabrata; for INH FD (MIC-MICc fold decrease): fold decrease of inhibitor MIC
Method: as §1

Trichophyton rubrum [18] = experiment: checkerboard drug interaction (FICI, MICc);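 note: simplified diagonal checkerboard screen pairing azole antifungals with FPPS inhibitors, FICI calculated under the Loewe additivity model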; format: cell-based; settings: T. rubrum
Method: as §1

[19] = FLC:INH combination, MIC of the inhibitor in combination with FLC
[20] = FLC:INH combination, fold decrease of FLC MIC
[21] = ITR:INH combination, MIC of the inhibitor in combination with ITR
[22] = ITR:INH combination, fold decrease of ITR MIC
[23] = KET:INH combination, MIC of the inhibitor in combination with KET
[24] = KET:INH combination, fold decrease of KET MIC
[25] = FLC:INH combination, MIC of FLC in combination with the inhibitor
[26] = ITR:INH combination, MIC of ITR in combination with the inhibitor
[27] = KET:INH combination, MIC of KET in combination with the inhibitor
[28] = Fractional Inhibitory Concentration Index, fluconazole + inhibitor
[29] = Fractional Inhibitory Concentration Index, itraconazole + inhibitor
[30] = Fractional Inhibitory Concentration Index, ketoconazole + inhibitor
[31] = MIC of the inhibitor in combination with fluconazole
[32] = MIC of the inhibitor in combination with itraconazole
[33] = MIC of the inhibitor in combination with ketoconazole
[34] = MIC-MICc fold decrease of fluconazole, negative = increase
[35] = MIC-MICc fold decrease of itraconazole, negative = increase
[36] = MIC-MICc fold decrease of ketoconazole, negative = increase
[37] = MIC-MICc fold decrease of the inhibitor, with fluconazole
[38] = MIC-MICc fold decrease of the inhibitor, with itraconazole
[39] = MIC-MICc fold decrease of the inhibitor, with ketoconazole

CCCCCCCCCCCN1CCC[C@H]1C(=O)N[C@@H](CC(=O)O)C(=O)O [PLA11]
0.31: FICI (Saccharomyces cerevisiae [6]; FLC:INH combination)
32: INH MICc (Saccharomyces cerevisiae [6]; [21]) | INH FD (MIC-MICc fold decrease) (Saccharomyces cerevisiae [6]; KET:INH combination)
128: INH MICc (Candida albicans [1]; [23]) | INH MICc (Cryptococcus neoformans [7]; [23]) | FLC MICc (Aspergillus fumigatus [11]; [25]) | INH FD (MIC-MICc fold decrease) (Aspergillus fumigatus [11]; ITR:INH combination) | INH MICc (Aspergillus fumigatus [11]; [23]) | INH MICc [16, 21] | INH MICc [16, 23] | INH FD (MIC-MICc fold decrease) (Candida glabrata [17]; ITR:INH combination) | INH FD (MIC-MICc fold decrease) (Candida glabrata [17]; KET:INH combination) | INH MICc (KET:INH) (Trichophyton rubrum [18]; [33])
0.27: FICI (Candida glabrata [17]; ITR:INH combination) | FICI (Candida glabrata [17]; KET:INH combination)
0.38: FICI (Saccharomyces cerevisiae [6]; ITR:INH combination)
16: INH MICc (Saccharomyces cerevisiae [6]; [19]) | INH FD (MIC-MICc fold decrease) (Saccharomyces cerevisiae [6]; FLC:INH combination)
< -4: KET FD (MIC-MICc fold decrease) (Candida albicans [1]; [24]) | FLC FD (MIC-MICc fold decrease) (Cryptococcus neoformans [7]; [20]) | ITR FD (MIC-MICc fold decrease) (Cryptococcus neoformans [7]; [22])
-2: FLC FD (FLC:INH) (Trichophyton rubrum [18]; [34])
> 128 µg/mL: MFC (Saccharomyces cerevisiae [2]) | MIC (Saccharomyces cerevisiae [2]) | MFC (Aspergillus fumigatus [3]) | MIC (Aspergillus fumigatus [3]) | MFC (Candida albicans [5]) | MIC (Candida albicans [5]) | MFC (Candida glabrata [8]) | MIC (Candida glabrata [8]) | MFC (Trichophyton rubrum [9]) | MIC (Trichophyton rubrum [9]) | MFC (eight fungal species [10]; across eight species, read-out: Geometric mean MFC) | MIC (eight fungal species [10]; geometric mean across eight species, read-out: GM fungal MIC) | MIC (eight fungal species [10]; read-out: Geometric mean MIC) | MFC (Cryptococcus neoformans [12]) | MIC (Cryptococcus neoformans [12]) | MFC [13] | MIC [13] | MFC (Aspergillus flavus [15]) | MIC (Aspergillus flavus [15])
> 256 µg/mL: IC50 (HEK-293T cells)
1: INH FD (MIC-MICc fold decrease) (Candida albicans [1]; FLC:INH combination) | INH FD (MIC-MICc fold decrease) (Candida albicans [1]; ITR:INH combination) | FLC MICc (Saccharomyces cerevisiae [6]; [25]) | INH FD (MIC-MICc fold decrease) (Cryptococcus neoformans [7]; FLC:INH combination) | INH FD (MIC-MICc fold decrease) (Cryptococcus neoformans [7]; ITR:INH combination) | FLC FD (MIC-MICc fold decrease) (Aspergillus fumigatus [11]; [20]) | INH FD (MIC-MICc fold decrease) (Aspergillus fumigatus [11]; FLC:INH combination) | KET FD (MIC-MICc fold decrease) (Aspergillus fumigatus [11]; [24]) | KET FD (KET:INH) (Aspergillus flavus [14]; [36]) | INH FD (KET:INH) (Aspergillus flavus [14]; [39]) | INH FD (MIC-MICc fold decrease) ([16]; FLC:INH combination) | FICI ([16]; KET:INH combination) | ITR FD (ITR:INH) (Trichophyton rubrum [18]; [35]) | KET FD (KET:INH) (Trichophyton rubrum [18]; [36]) | INH FD (FLC:INH) (Trichophyton rubrum [18]; [37]) | INH FD (ITR:INH) (Trichophyton rubrum [18]; [38])
1.5: FICI (Aspergillus fumigatus [11]; KET:INH combination) | FICI (KET:INH) (Trichophyton rubrum [18]; [30])
8: INH FD (MIC-MICc fold decrease) (Saccharomyces cerevisiae [6]; ITR:INH combination) | INH MICc (Saccharomyces cerevisiae [6]; [23])
≥4: FICI (Candida albicans [1]; FLC:INH combination) | FICI (Candida albicans [1]; ITR:INH combination) | FICI (Candida albicans [1]; KET:INH combination) | FICI (Cryptococcus neoformans [7]; FLC:INH combination) | FICI (Cryptococcus neoformans [7]; ITR:INH combination) | FICI (Cryptococcus neoformans [7]; KET:INH combination) | FICI ([16]; FLC:INH combination) | FICI ([16]; ITR:INH combination)
0.52: FICI (ITR:INH) (Aspergillus flavus [14]; [29])
4: FLC FD (MIC-MICc fold decrease) (Saccharomyces cerevisiae [6]; [20]) | ITR FD (MIC-MICc fold decrease) (Saccharomyces cerevisiae [6]; [22]) | KET FD (MIC-MICc fold decrease) (Saccharomyces cerevisiae [6]; [24]) | KET MICc (Aspergillus fumigatus [11]; [27]) | INH MICc (ITR:INH) (Aspergillus flavus [14]; [32]) | INH FD (FLC:INH) (Aspergillus flavus [14]; [37]) | INH MICc (Candida glabrata [17]; [19]) | FLC FD (MIC-MICc fold decrease) (Candida glabrata [17]; [20]) | ITR FD (MIC-MICc fold decrease) (Candida glabrata [17]; [22]) | KET FD (MIC-MICc fold decrease) (Candida glabrata [17]; [24])
0.28: FICI (Saccharomyces cerevisiae [6]; KET:INH combination) | FICI (Candida glabrata [17]; FLC:INH combination)
2: INH FD (MIC-MICc fold decrease) (Candida albicans [1]; KET:INH combination) | INH FD (MIC-MICc fold decrease) (Cryptococcus neoformans [7]; KET:INH combination) | FICI (Aspergillus fumigatus [11]; FLC:INH combination) | INH MICc (Aspergillus fumigatus [11]; [21]) | ITR FD (MIC-MICc fold decrease) (Aspergillus fumigatus [11]; [22]) | INH FD (MIC-MICc fold decrease) (Aspergillus fumigatus [11]; KET:INH combination) | FICI (KET:INH) (Aspergillus flavus [14]; [30]) | FLC FD (FLC:INH) (Aspergillus flavus [14]; [34]) | ITR FD (ITR:INH) (Aspergillus flavus [14]; [35]) | INH FD (MIC-MICc fold decrease) ([16]; ITR:INH combination) | KET FD (MIC-MICc fold decrease) [16, 24] | INH FD (MIC-MICc fold decrease) ([16]; KET:INH combination) | INH MICc (Candida glabrata [17]; [21]) | INH MICc (Candida glabrata [17]; [23]) | FICI (ITR:INH) (Trichophyton rubrum [18]; [29]) | INH FD (KET:INH) (Trichophyton rubrum [18]; [39])
55.4: GM fungal MICc (eight fungal species [4])
3: FICI (FLC:INH) (Trichophyton rubrum [18]; [28])
256: INH MICc (Candida albicans [1]; [19]) | INH MICc (Candida albicans [1]; [21]) | INH MICc (Cryptococcus neoformans [7]; [19]) | INH MICc (Cryptococcus neoformans [7]; [21]) | INH MICc (Aspergillus fumigatus [11]; [19]) | INH MICc (KET:INH) (Aspergillus flavus [14]; [33]) | INH MICc [16, 19] | INH MICc (FLC:INH) (Trichophyton rubrum [18]; [31]) | INH MICc (ITR:INH) (Trichophyton rubrum [18]; [32])
0.063: ITR MICc (Saccharomyces cerevisiae [6]; [26]) | ITR MICc (Aspergillus fumigatus [11]; [26])
-4: FLC FD (MIC-MICc fold decrease) (Candida albicans [1]; [20]) | ITR FD (MIC-MICc fold decrease) (Candida albicans [1]; [22]) | KET FD (MIC-MICc fold decrease) (Cryptococcus neoformans [7]; [24]) | FLC FD (MIC-MICc fold decrease) [16, 20] | ITR FD (MIC-MICc fold decrease) [16, 22]
0.75: FICI (FLC:INH) (Aspergillus flavus [14]; [28])
0.5: KET MICc (Saccharomyces cerevisiae [6]; [27])
64: INH MICc (FLC:INH) (Aspergillus flavus [14]; [31]) | INH FD (ITR:INH) (Aspergillus flavus [14]; [38]) | INH FD (MIC-MICc fold decrease) (Candida glabrata [17]; FLC:INH combination)
0.51: FICI (Aspergillus fumigatus [11]; ITR:INH combination)
